# Laboratory results as given in patent publication US4195171A, “Derivatives of an antibiotic XK-62-2 and process for the production thereof” (Abbott Laboratories, priority 1975, dated 1980).
# Read-outs that look alike come from different tables or passages of the source.
# How the values were obtained:
# [1] = system: Providencia sp. 164; test: Antibacterial spectrum, MIC by agar dilution method; assay type: cell-based; conditions: pH 7.2, strain produces gentamicin acetyltransferase Type II, read-out: Minimum Inhibitory Concentration
# From the text: (§1) XK-62-2, 1-N-[L-(-)-α-hydroxy-γ-aminobutyryl] XK-62-2, Compounds (I-1), (I-2), (II-1) and (II-2) against various Gram-negative and Gram-positive bacteria determined by agar dilution method at pH 7.2.
# ^9 produces gentamicin acetyltransferase Type II
# [2] = system: Pseudomonas aeruginosa KY 8512; test: as above; assay type: cell-based; conditions: KY8512, pH 7.2, strain produces neomycinkanamycin phosphotransferase Type I and Type II, read-out: Minimum Inhibitory Concentration
# From the text: as §1
# (§2) ^6 produces neomycinkanamycin phosphotransferase Type I and Type II
# [3] = system: Pseudomonas aeruginosa KY 8519; test: as above; assay type: cell-based
# From the text: as §1, §2
# [4] = system: Pseudomonas aeruginosa KY 8563; test: as above; assay type: cell-based
# From the text: as §1
# ^7 produces gentamicin acetyltransferase Type III
# [5] = system: Escherichia coli KY 8321; test: as above; assay type: cell-based; conditions: KY8321, pH 7.2, strain produces gentamicin adenyltransferase and neomycinkanamycin phosphotransferase Type II, read-out: Minimum Inhibitory Concentration
# From the text: as §1
# ^5 produces gentamicin adenyltransferase and neomycinkanamycin
# phosphotransferase Type II
# [6] = system: Escherichia coli KY 8349; test: as above; assay type: cell-based; conditions: KY8349, pH 7.2, strain produces neomycinkanamycin phosphotransferase Type I, read-out: Minimum Inhibitory Concentration
# From the text: as §1
# (§3) ^3 produces neomycinkanamycin phosphotransferase Type I
# [7] = system: Escherichia coli KY 8320; test: as above; assay type: cell-based; conditions: KY8320, pH 7.2, strain produces neomycinkanamycin phosphotransferase Type I, read-out: Minimum Inhibitory Concentration
# From the text: as §1, §3
# [8] = system: Pseudomonas aeruginosa KY 8518; test: as above; assay type: cell-based; conditions: KY8518, pH 7.2, strain produces neomycinkanamycin phosphotransferase Type I, read-out: Minimum Inhibitory Concentration
# From the text: as §1, §3
# [9] = Acute toxicity (LD50) in mice; conditions: mouse, in vivo, route not stated
# From the text: XK-62-2, Compounds (I-2), (II-1) and (II-2) in mice.
# [10] = KY8519, agar dilution, pH 7.2, strain produces neomycinkanamycin phosphotransferase Type I and Type II, read-out: Minimum Inhibitory Concentration
# [11] = KY8563, agar dilution, pH 7.2, strain produces gentamicin acetyltransferase Type III, read-out: Minimum Inhibitory Concentration
# [12] = KY8563, pH 7.2, read-out: Minimum Inhibitory Concentration
Structure (SMILES),MIC [1] [µg/mL],MIC [2] [µg/mL],"MIC [3, 10] [µg/mL]","MIC [4, 11] [µg/mL]",MIC [5] [µg/mL],MIC [6] [µg/mL],MIC [7] [µg/mL],MIC [8] [µg/mL],LD50 [9] [mg/kg],"MIC [4, 12] [µg/mL]","MIC ([3]; KY8519, pH 7.2, read-out: Minimum Inhibitory Concentration) [µg/mL]"
"CC1(O)COC(OC2C(NC(=O)C(O)CCN)CC(N)C(OC3OC(CN)CCC3N)C2O)C(O)C1N (single isomer, unassigned) [Compound I-2, 3""-N, 6'-N-didemethyl-1-N-[L-(-)-α-hydroxy-γ-aminobutyryl] XK-62-2]",6.25,0.78,3.12,3.12,0.78,0.4,0.78,0.78,200,–,–
"CNCC1CCC(N)C(OC2C(N)CC(NC(=O)C(O)CN)C(OC3OCC(C)(O)C(N)C3O)C2O)O1 (racemic) [II-1, 3""-N-demethyl-1-N-(DL-α-hydroxy-β-aminopropionyl) XK-62-2]",25,1.56,6.25,–,1.56,0.4,1.56,1.56,175,3.12,–
"CNCC1CCC(N)C(OC2C(N)CC(NC(=O)C(O)CN)C(OC3OCC(C)(O)C(NC)C3O)C2O)O1 (racemic) [1-N-(DL-α-hydroxy-β-aminopropionyl) XK-62-2, reference compound]",6.25,1.56,6.25,3.12,0.4,0.1,0.4,1.56,185,–,–
"CNCC1CCC(N)C(OC2C(N)CC(NC(=O)C(O)CCN)C(OC3OCC(C)(O)C(N)C3O)C2O)O1 (single isomer, unassigned) [II-2, 3""-N-demethyl-1-N-[L-(-)-α-hydroxy-γ-aminobutyryl] XK-62-2]",12.5,1.56,6.25,–,0.78,0.4,0.78,1.56,250,3.12,–
"CNCC1CCC(N)C(OC2C(N)CC(NC(=O)C(O)CCN)C(OC3OCC(C)(O)C(NC)C3O)C2O)O1 (single isomer, unassigned) [1-N-[L-(-)-α-hydroxy-γ-aminobutyryl] XK-62-2, reference compound]",6.25,1.56,6.25,6.25,0.2,0.1,0.2,1.56,180,–,–
"CC1(O)COC(OC2C(NC(=O)C(O)CN)CC(N)C(OC3OC(CN)CCC3N)C2O)C(O)C1N (racemic) [Compound I-1, 3""-N, 6'-N-didemethyl-1-N-(DL-α-hydroxy-β-aminopropionyl) XK-62-2]",6.25,0.78,–,1.56,1.56,0.4,0.78,0.78,–,–,3.12
